Reference: ChEMBL document CHEMBL1201862, “PubChem BioAssay data set” (2004)
Active and inactive are the calls of the source. Unless noted, the rule behind the calls is not given here.

Tests used:
Type in all cases: functional
Protein RecA = molecular target: T1, Protein RecA (Mycobacterium tuberculosis, UniProt P9WHJ3); assay: Fluorescence Cell-Free Homogeneous Dose Retest to Identify Inhibitors of RecA-Intein Splicing Activity. [Related pubchem assays (depositor defined):AID2097, AID2223, AID489010, AID492950]
T1 sequence (P9WHJ3 whole entry): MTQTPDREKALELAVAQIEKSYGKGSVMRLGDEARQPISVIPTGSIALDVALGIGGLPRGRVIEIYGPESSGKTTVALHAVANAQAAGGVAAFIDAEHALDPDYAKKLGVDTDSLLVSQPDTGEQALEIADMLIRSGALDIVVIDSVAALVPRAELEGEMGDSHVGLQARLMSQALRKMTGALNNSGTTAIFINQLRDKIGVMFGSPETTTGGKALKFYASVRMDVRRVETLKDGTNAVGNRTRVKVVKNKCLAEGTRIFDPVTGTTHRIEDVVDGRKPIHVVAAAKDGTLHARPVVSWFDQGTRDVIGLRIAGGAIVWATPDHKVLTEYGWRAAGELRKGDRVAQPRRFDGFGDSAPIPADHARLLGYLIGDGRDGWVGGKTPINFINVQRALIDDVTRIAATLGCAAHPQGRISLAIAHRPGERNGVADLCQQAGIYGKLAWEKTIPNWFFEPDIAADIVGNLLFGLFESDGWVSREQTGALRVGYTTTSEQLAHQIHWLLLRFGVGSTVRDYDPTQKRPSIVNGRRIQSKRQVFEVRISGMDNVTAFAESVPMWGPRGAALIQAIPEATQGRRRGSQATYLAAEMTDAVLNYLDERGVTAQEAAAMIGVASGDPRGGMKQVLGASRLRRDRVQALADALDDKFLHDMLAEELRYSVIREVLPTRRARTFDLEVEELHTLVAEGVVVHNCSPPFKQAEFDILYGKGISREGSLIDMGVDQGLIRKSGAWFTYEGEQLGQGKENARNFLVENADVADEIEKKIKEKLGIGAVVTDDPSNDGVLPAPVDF

[1] = molecular target: T2, Sentrin-specific protease 8 (Homo sapiens, UniProt Q96LD8);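 also: kinetic enzyme assay of SENP8 cleaving a Nedd8 protein substrate, dose-response confirmation of screening hits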
T2 sequence (Q96LD8 whole entry): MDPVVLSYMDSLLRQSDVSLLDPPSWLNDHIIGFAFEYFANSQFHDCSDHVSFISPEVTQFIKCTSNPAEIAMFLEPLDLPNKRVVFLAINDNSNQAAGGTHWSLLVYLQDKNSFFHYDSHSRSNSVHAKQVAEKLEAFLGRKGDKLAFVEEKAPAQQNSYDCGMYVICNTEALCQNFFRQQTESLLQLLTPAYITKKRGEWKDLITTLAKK

[2] = molecular target: MAP/microtubule affinity-regulating kinase 4 (Homo sapiens, UniProt Q96L34); assay: Navigating the Kinome. Panel member name: MARK4
[3] = molecular target: Calcium/calmodulin-dependent protein kinase kinase 2 (Homo sapiens, UniProt Q96RR4); assay: Navigating the Kinome. Panel member name: CAMKK2
[4] = molecular target: Mitogen-activated protein kinase kinase kinase kinase 4 (Homo sapiens, UniProt O95819)
[5] = molecular target: Mitogen-activated protein kinase 10 (Homo sapiens, UniProt P53779); assay: Navigating the Kinome. Panel member name: MAPK10
Mitogen-activated protein kinase 10, sequence (P53779 whole entry): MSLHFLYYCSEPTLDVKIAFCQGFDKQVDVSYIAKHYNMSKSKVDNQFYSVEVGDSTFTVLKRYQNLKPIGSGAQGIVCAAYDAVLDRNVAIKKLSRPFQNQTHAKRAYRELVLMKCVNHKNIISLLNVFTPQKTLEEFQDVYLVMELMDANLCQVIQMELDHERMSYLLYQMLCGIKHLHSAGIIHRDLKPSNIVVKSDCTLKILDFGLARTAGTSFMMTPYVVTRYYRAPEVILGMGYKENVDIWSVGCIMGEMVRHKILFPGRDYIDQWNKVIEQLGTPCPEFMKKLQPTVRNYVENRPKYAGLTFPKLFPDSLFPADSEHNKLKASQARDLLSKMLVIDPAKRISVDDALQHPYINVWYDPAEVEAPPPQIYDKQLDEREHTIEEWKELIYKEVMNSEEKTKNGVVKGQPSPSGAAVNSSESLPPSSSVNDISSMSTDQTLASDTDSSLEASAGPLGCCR

MAP/microtubule affinity-regulating kinase 4, sequence (Q96L34 whole entry): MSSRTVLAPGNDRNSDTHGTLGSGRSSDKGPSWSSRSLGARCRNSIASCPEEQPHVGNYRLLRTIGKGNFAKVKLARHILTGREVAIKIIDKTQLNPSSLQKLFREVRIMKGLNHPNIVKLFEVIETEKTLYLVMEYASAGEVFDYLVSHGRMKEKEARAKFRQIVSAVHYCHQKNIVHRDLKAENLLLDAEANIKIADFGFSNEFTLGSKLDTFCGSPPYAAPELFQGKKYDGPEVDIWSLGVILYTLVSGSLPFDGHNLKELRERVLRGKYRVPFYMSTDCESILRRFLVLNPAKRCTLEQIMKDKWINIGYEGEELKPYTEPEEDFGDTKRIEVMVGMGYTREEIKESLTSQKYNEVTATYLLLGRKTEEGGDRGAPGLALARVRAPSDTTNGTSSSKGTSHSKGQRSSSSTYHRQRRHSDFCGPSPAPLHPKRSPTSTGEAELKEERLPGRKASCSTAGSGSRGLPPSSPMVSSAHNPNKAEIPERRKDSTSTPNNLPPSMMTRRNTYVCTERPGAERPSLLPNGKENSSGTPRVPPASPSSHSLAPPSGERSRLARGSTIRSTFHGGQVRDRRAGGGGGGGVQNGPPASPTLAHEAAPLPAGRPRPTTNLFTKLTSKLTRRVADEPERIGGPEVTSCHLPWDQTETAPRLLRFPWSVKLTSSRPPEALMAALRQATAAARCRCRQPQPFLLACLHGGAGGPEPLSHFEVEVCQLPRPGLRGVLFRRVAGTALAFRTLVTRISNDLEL
Calcium/calmodulin-dependent protein kinase kinase 2, sequence (Q96RR4 whole entry): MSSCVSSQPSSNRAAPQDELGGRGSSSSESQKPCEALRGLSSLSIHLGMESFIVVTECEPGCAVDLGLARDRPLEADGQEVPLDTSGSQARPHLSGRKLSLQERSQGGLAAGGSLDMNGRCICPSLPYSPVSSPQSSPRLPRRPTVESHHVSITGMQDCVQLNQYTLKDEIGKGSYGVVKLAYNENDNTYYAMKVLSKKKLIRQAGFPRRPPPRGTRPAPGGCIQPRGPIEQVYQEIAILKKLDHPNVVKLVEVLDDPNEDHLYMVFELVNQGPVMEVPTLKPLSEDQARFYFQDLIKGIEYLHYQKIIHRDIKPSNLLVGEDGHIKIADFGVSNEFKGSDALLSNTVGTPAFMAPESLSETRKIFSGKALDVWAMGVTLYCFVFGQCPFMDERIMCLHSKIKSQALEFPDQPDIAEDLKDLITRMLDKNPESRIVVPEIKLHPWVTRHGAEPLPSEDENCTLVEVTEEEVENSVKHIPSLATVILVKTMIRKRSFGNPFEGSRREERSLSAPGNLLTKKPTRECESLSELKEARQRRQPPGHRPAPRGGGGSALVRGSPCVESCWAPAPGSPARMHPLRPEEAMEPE
Mitogen-activated protein kinase kinase kinase kinase 4, sequence (O95819 whole entry): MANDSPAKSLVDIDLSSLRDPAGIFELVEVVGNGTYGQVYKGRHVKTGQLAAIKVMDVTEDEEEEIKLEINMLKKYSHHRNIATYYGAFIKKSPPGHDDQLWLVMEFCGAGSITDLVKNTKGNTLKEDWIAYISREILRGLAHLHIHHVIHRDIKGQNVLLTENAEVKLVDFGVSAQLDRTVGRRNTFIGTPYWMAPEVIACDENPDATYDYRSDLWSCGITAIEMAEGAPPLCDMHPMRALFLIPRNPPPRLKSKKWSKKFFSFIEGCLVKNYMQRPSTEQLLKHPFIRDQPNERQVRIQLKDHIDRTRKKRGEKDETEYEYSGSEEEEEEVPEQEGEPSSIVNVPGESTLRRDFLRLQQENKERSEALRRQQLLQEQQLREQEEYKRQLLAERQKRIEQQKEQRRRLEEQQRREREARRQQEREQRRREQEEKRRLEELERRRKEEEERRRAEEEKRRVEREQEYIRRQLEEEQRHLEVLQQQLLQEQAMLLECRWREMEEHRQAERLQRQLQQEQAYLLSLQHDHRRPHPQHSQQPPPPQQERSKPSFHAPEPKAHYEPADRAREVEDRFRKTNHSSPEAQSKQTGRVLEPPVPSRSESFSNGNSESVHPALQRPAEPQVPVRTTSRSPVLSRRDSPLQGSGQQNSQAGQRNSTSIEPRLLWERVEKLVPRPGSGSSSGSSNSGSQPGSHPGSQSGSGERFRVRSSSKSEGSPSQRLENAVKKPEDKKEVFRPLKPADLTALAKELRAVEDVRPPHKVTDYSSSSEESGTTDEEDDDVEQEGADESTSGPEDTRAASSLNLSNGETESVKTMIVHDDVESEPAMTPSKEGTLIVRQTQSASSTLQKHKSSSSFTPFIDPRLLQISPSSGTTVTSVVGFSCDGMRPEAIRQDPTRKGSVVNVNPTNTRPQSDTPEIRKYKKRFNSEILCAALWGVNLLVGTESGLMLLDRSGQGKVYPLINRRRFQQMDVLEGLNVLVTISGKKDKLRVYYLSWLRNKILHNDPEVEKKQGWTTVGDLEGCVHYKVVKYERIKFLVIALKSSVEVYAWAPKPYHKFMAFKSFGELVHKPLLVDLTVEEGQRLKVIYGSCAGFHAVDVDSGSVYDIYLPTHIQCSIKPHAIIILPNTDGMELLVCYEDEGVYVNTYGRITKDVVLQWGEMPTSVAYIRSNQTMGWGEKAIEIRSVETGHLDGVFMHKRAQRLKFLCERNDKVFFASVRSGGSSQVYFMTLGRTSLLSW

c1ccc2nc3cc4[nH]cnc4cc3nc2c1
EC50 (Protein RecA): 29.6 µM (inconclusive)
IC50 [1]: 10.8 µM (active)

Oc1ccc(-c2nc(-c3ccncc3)c(-c3ccc(F)cc3)[nH]2)cc1 [SB-202190]
Ki [2]: > 5.01 µM (inactive)
Ki [3]: > 2.51 µM (inactive)
Ki [4]: 1 µM (active)
Ki [5]: 0.0631 µM (active)
